The source of these data is PMC4232510, “Identification of Functionally Important Residues of the Rat P2X4 Receptor by Alanine Scanning Mutagenesis of the Dorsal Fin and Left Flipper Domains” (PLoS ONE, 2014).

Residue numbers refer to the chain shown, from its start.

Assay in all cases: whole-cell patch clamp, HEK293T cells expressing mutant
Assay type in all cases: cell-based
Settings in all cases: for relative responsiveness: 100 µM agonist 2 s, relative to ATP (100%)

One experiment has as its target T1, rP2X4R D280A mutant (Rattus norvegicus, UniProt P51577, D280A).
T1 construct: expressed in transfected cells; host or cells: HEK293T
T1 sequence (P51577 1-388 D280A): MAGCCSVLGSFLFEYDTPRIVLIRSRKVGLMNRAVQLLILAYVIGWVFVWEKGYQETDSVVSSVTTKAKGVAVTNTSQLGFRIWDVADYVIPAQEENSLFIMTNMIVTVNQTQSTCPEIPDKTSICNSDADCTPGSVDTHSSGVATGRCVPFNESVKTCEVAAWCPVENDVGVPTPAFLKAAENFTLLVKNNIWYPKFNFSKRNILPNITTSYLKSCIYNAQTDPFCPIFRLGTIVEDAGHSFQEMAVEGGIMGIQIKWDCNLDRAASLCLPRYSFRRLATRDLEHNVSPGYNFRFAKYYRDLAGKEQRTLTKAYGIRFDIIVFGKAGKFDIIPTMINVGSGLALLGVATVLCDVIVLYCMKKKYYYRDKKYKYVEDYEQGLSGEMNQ
How it is done: (§1) To express the recombinant channels, we used human embryonic kidney (HEK) 293T cells (American Type Culture Collection, Rockville, MD, USA) grown in Dulbecco modified Eagle’s medium (Thermo Fisher Scientific, Waltham, MA) supplemented with 10% fetal bovine serum (Sigma-Aldrich, St Louis, MO), 50 U/ml penicillin and 50 µg/ml streptomycin (both Thermo Fisher Scientific, Waltham, MA) in a humidified 5% CO2 and 95% air at 37°C. Cells were cultured in 75 cm^2 plastic culture flasks (NUNC, Rochester, NY) for 36–72 hours until reaching 80–95% confluence. Before the day of transfection, the cells were plated on 35 mm culture dishes (Sarstedt, Newton, NC) and incubated at 37°C for at least 24 h. Transfection was done using 2 µg of either WT or mutant receptor DNA with 2 µl of JetPrime reagent in 2 ml of Dulbecco modified Eagle’s medium, according to manufacturer’s instructions (PolyPlus-transfection, Illkirch, France). Transfected cells were identified by the fluorescence signal of EGFP using the Olympus IX71 inverted research microscope with fluorescence illuminators (Model IX71; Olympus, Melville, NY).
(§2) cDNAs encoding the sequences of the rP2X4 and mutated subunits were subcloned into the pIRES2-EGFP vector (Clontech, Mountain View, CA, USA). To generate the mutants, oligonucleotides (synthesized and provided by VBC-Genomics, Vienna, Austria or Sigma Aldrich) containing specific mutagenesis mismatches were introduced into the rP2X4/pIRES2-EGFP template using PfU Ultra DNA polymerase (Thermo Fisher Scientific). A High-Speed Plasmid Mini Kit (Geneaid, Taipei City, Taiwan) was used to isolate the plasmids for transfection. Dye terminator cycle sequencing (ABI PRISM 3100, Applied Biosystems, Foster City, CA) was used to identify and verify the presence of the mutations. The sequencing was performed by the DNA Sequencing Laboratory, Institute of Microbiology, ASCR, Prague.
(§3) ATP-induced currents were recorded from whole cells clamped to −60 mV using an Axopatch 200B patch-clamp amplifier (Axon Instruments, Union City, CA). The recordings were captured and stored using the Digidata 1322A and pClamp9 software package (Axon Instruments). During the experiments, the cell culture was perfused with a bath solution containing: 142 mM NaCl, 3 mM KCl, 2 mM CaCl2, 1 mM MgCl2, 10 mM 4-(2-Hydroxyethyl)piperazine-1-ethanesulfonic acid (HEPES) and 10 mM D-glucose, adjusted to pH 7.3 with 1 M NaOH. The patch electrodes were filled with a solution containing: 154 mM CsCl, 11 mM EGTA and 10 mM HEPES, adjusted to pH 7.2 with 1.6 M CsOH. The whole-cell configuration was used to abolish the influence of natively present metabotropic receptors for ATP and we used intracellular cesium to block any kind of possible background potassium conductance. Potency of ATP was measured based on the activation of naïve (not previously stimulated) receptors using a short (2–5 s) application of various concentrations of ATP. The results are expressed as molar concentration of ATP required to produce 50% of the maximal response (EC50). One or two responses were recorded from one cell, if not otherwise stated, and responses from different cells were pooled. The maximum current amplitude (Imax) was measured in response to application of supramaximal concentrations (100–1000 µM) of ATP. Responsiveness to P2XR agonists 2-MeS-ATP, ATPγS, BzATP, and α,β-meATP, all applied in 100 µM concentration, was expressed as percentage of response in comparison to 100 µM ATP treatment for selected mutants. In all mutants, the whole cell currents were also measured in the presence of 3 µM IVM, which was dissolved in dimethyl sulfoxide, stored in stock solutions at 10 mM, and diluted to required concentrations in bath solution in the day of experiment. The control and drug containing solutions were applied via a rapid (exchange time 30–40 ms) perfusion system (RSC-200, BIOLOGIC, Claix, France). All other chemicals are from Sigma-Aldrich. […]

The target in the next experiment is T2, rP2X4R I205A mutant (Rattus norvegicus, UniProt P51577, I205A).
T2 construct: expressed in transfected cells; host or cells: HEK293T
T2 sequence (P51577 1-388 I205A): T1 sequence (P51577 1-388 D280A) with I205A, A280D
How it is done:
as §1, §2, §3

In a further experiment the target is T3, rP2X4R T210A mutant (Rattus norvegicus, UniProt P51577, T210A).
T3 construct: expressed in transfected cells; host or cells: HEK293T
T3 sequence (P51577 1-388 T210A): T1 sequence (P51577 1-388 D280A) with T210A, A280D
How it is done:
as §1, §2, §3

Where [1] appears, read: 100 µM ATP 60 s, biexponential fit.
Where [2] appears, read: contribution of τdes2, 100 µM ATP 60 s.
Setting [3] is: decay after removal of 1 or 3 µM ATP, 3 µM IVM.
[4] abbreviates: naïve receptors, 2–5 s application.
Setting [5] is: 3 µM IVM 4-6 min vs IVM-untreated.

“2′(3′-O-(4-Benzoylbenzoyl)adenosine 5′-triphosphate [BzATP]”: the relative responsiveness came out at 25.4±1.5% at rP2X4R D280A mutant, 4.4±2.6 % on rP2X4R I205A mutant and 23.9±3.2 % on rP2X4R T210A mutant.
On the same counts, the results for `CSc1nc(N)c2ncn([C@@H]3O[C@H](COP(=O)(O)OP(=O)(O)OP(=O)(O)O)[C@@H](O)[C@H]3O)c2n1` [2-MeS-ATP, 2-(Methylthio)adenosine 5′-triphosphate] are 56.3±7.8%, 35.6±1.9 % and 59.2±6.9%.
Regarding `Nc1ncnc2c1ncn2[C@@H]1O[C@H](COP(=O)(O)OP(=O)(O)OP(=O)(O)O)[C@@H](O)[C@H]1O` [ATP], the “EC50 rightward shift compared to WT” value at rP2X4R D280A mutant and on rP2X4R I205A mutant was “approximately 10 fold” in each case. In addition, the figures for the τdes1 at rP2X4R D280A mutant (setting [1]), at rP2X4R I205A mutant (setting [1]) and on rP2X4R T210A mutant (setting [1]) were 3.9 ± 1.2 s, 1.5 ± 0.7 s and 2.0 ± 0.3 s, respectively. The τdes2 is 22.9 ± 7.8 s on rP2X4R D280A mutant (setting [1]), 8.1 ± 1.3 s at rP2X4R I205A mutant (setting [1]) and 14.4 ± 2.5 s on rP2X4R T210A mutant (setting [1]). Also, the Imax on rP2X4R D280A mutant (100–1000 µM ATP) stood at 0.7 ± 0.1 nA; on rP2X4R I205A mutant (100–1000 µM ATP) it was 0.6 ± 0.13 nA; at rP2X4R T210A mutant (100–1000 µM ATP), 1.9 ± 0.2 nA. In addition, the “Imax+IVM” value was found to be 3.6 ± 0.4 nA at rP2X4R D280A mutant (ATP after 3 µM IVM 4-6 min), 4.3 ± 0.4 nA on rP2X4R I205A mutant (ATP after 3 µM IVM 4-6 min) and 3.5 ± 0.6 nA at rP2X4R T210A mutant (ATP after 3 µM IVM 4-6 min). The “A2 /(A1+A2)” value was 62 ± 6% on rP2X4R D280A mutant (setting [2]), 51 ± 4% at rP2X4R I205A mutant (setting [2]) and 52 ± 8% on rP2X4R T210A mutant (setting [2]). In addition, the “τoff +IVM” value at rP2X4R D280A mutant (setting [3]) is listed as 5.5 ± 0.3 s; at rP2X4R I205A mutant (setting [3]), 4.1 ± 0.9 s; at rP2X4R T210A mutant (setting [3]) it was 5.5 ± 0.4 s. In addition, the EC50 is 26 ± 8.2 µM at rP2X4R D280A mutant (setting [4]), 26 ± 7.7 µM at rP2X4R I205A mutant (setting [4]) and 26 ± 2.6 µM on rP2X4R T210A mutant (setting [4]). For the same compound, the τdes on rP2X4R D280A mutant (weighted, 100 µM ATP 60 s) is 15 ± 3.7 s; on rP2X4R I205A mutant (weighted, 100 µM ATP 60 s) it was 4.9 ± 0.9. s; on rP2X4R T210A mutant (weighted, 100 µM ATP 60 s), 8.9 ± 2.1 s.
On to `Nc1ncnc2c1ncn2[C@@H]1O[C@H](CO[P@](=O)(O)O[P@](=O)(O)O[P@@](=O)(O)S)[C@@H](O)[C@H]1O` [ATPγS, Adenosine 5′-(γ-thio)triphosphate], for which the figures for the relative responsiveness on rP2X4R D280A mutant, on rP2X4R I205A mutant and at rP2X4R T210A mutant were 55.7±3.8%, 11.3±2.2 % and 34.2±4.1 %, respectively.
In the case of `CC[C@H](C)[C@H]1O[C@]2(CC[C@@H]1C)C[C@@H]1C[C@@H](C/C=C(\C)[C@@H](O[C@H]3C[C@H](OC)[C@@H](O[C@H]4C[C@H](OC)[C@@H](O)[C@H](C)O4)[C@H](C)O3)[C@@H](C)/C=C/C=C3\CO[C@@H]4[C@H](O)C(C)=C[C@@H](C(=O)O1)[C@]34O)O2` [IVM, ivermectin], the “Fold incr. Imax” value at rP2X4R D280A mutant (setting [5]) was determined as 5.1 ± 0.5 fold; at rP2X4R I205A mutant (setting [5]), 5.5 ± 0.6 fold; at rP2X4R T210A mutant (setting [5]) it was 1.8 ± 0.2 fold.
Take `Nc1ncnc2c1ncn2C1OC(COP(=O)(O)CP(=O)(O)OP(=O)(O)O)C(O)C1O` (stereo not drawn) [α,β-meATP, α,β-methyleneadenosine 5′-triphosphate]: the relative responsiveness at rP2X4R D280A mutant is reported as 33.1±6.0%; on rP2X4R I205A mutant it was 4.6±1.0 %; on rP2X4R T210A mutant, 8.8±2.3 %.
